Data reported in patent US4994376A, “Detection of bacteroides gingivalis” (priority 1987, dated 1991).
Peptide text beside a SMILES is read from it. * marks the point of attachment. βNA = c1ccc2cc(N*)ccc2c1

How the values were obtained:
Assay type in all cases: biochemical
Veillonella alcalesens = assay: Aminopeptidase activity on β-naphthylamide substrates; details: strain ATCC 11748; β-naphthylamine liberated after 60 minutes, 37° C.
Summary of the method: (§1)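 Chromogenic assay using N-CBz-glycyl-glycyl-L-arginine-β-naphthylamide, incubated 1 hour at 37° C. Liberated β-naphthylamine is coupled with Fast Garnet GBC (0.5 mg/ml) in 1M acetic acid pH 4.2 with 10% Tween 20 for 15 min at room temperature, then read at 525 nm.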

Eikenella corrodens = details: strain BP1-6; β-naphthylamine liberated after 60 minutes, 37° C.
Summary of the method: as §1

B. intermedius = assay: Aminopeptidase activity on β-naphthylamide substrates; details: strain ATCC 25611; β-naphthylamine liberated after 60 minutes, 37° C.
Description: (§2) The enzyme activity was measured by the chromogenic properties of N-CBz-glycyl-glycyl-L-arginine-β-naphthylamide which upon hydrolysis gives a visible color. The aminopeptidase activities listed in the table reflect the nanomoles of β-naphthylamine liberated after 60 minutes under the conditions described below.
(§3) After mixing, the solution is incubated for 1 hour at 37° C. and then 0.4 ml of a solution of stabilized diazonium salt, Fast Garnet GBC (0.5 mg/ml) in a 1M acetic acid buffer (pH 4.2), containing 10% Tween 20 was added to the mixture. After standing for 15 minutes at room temperature, the color reaction can be read manually by comparison with standard solutions or the absorbancy can be determined using a spectrophotometer at 525 nm. The reaction mixture without enzyme solution is used as a control.

B. denticola = assay: as above; details: strain ATCC 33185; β-naphthylamine liberated after 60 minutes, 37° C.
Description: as §2, §3

B. melaninogenicus = assay: as above; details: strain ATCC 25845; β-naphthylamine liberated after 60 minutes, 37° C.
Description: as §2, §3

C. sputigena = assay: as above; details: strain ATCC 33123; β-naphthylamine liberated after 60 minutes, 37° C.
Description: as §2, §3

B. corporis = assay: as above; details: strain ATCC 33547; β-naphthylamine liberated after 60 minutes, 37° C.
Description: as §2, §3

| Structure (SMILES) | Aminopeptidase activity (Veillonella alcalesens) | Aminopeptidase activity (Eikenella corrodens) | Aminopeptidase activity (B. intermedius) | Aminopeptidase activity (B. denticola) | Aminopeptidase activity (B. melaninogenicus) | Aminopeptidase activity (C. sputigena) | Aminopeptidase activity (B. corporis) |
| --- | --- | --- | --- | --- | --- | --- | --- |
| NC(=O)[C@@H](N)CCC(=O)O [α-Glu, α -glutamine] | 0 nmol | 0 nmol | 0 nmol | 0 nmol | 1 nmol | 7 nmol | 0 nmol |
| C[C@H](N)C(=O)N[C@@H](C)C(=O)N[C@@H](Cc1ccccc1)C(=O)Nc1ccc2ccccc2c1 [Ala-Ala-Phe] (H-Ala-Ala-Phe-βNA) | 1 nmol | 0 nmol | 0 nmol | 2 nmol | 1 nmol | 44 nmol | 0 nmol |
| CC(C)C[C@H](N)C(=O)NCC(=O)O [Leu-Gly, Leucyl-glycine] (H-Leu-Gly-OH) |  | 0 nmol | 10 nmol | 42 nmol | 53 nmol | 20 nmol | 67 nmol |
| Cl.N=C(N)NCCC[C@H](NC(=O)CNC(=O)CNC(=O)OCc1ccccc1)C(=O)Nc1ccc2ccccc2c1 [N-CBz-Gly-Gly-Arg, N-carbobenzoxy-glycyl-glycyl-L-arginine-β-naphthylamide hydrochloride] | 0 nmol | 0 nmol | 0 nmol | 0 nmol | 0 nmol | 5 nmol | 1 nmol |
| CSCCC(N)C(=O)Nc1ccc2ccccc2c1 (racemic) | 0 nmol | 3 nmol | 0 nmol | 0 nmol | 1 nmol | 117 nmol | 0 nmol |
| CC(C)C[C@H](NC(=O)[C@@H]1CCCN1C(=O)CN)C(=O)Nc1ccc2ccccc2c1 [Gly-Pro-Leu] (H-Gly-Pro-Leu-βNA) | 0 nmol | 0 nmol | 0 nmol | 1 nmol | 2 nmol | 28 nmol | 2 nmol |
